Columns and labels:
[1] = molecular target: HDAC6 (Homo sapiens (Human), UniProt Q9UBN7); experiment: HDAC enzyme assay (HDAC6); type: biochemical
[2] = system: streptozotocin-induced diabetic rats (STZ rats); experiment: Von Frey test of tactile allodynia in STZ diabetic rats; type: in vivo, rat; settings: for tactile allodynia / pain threshold (von Frey): STZ rats, oral dosing days 11-21
Protocol: Diabetes was induced in male SD rats by IV dosing of STZ (60 mg/kg) on […]. Blood glucose level (BGL) of above 300 mg/dl was observed on study day 3, following STZ dosing, which maintained throughout the study period.
Gabapentin (150 mg/kg) was used as a positive control. Tactile allodynia was measured on the indicated days during dosing and once on day 24, three days after dosing was stopped. Vehicle treated animals experienced low mechanical threshold throughout the treatment period (days 11-21) and also 3 days after the last dose (day 24).

[3] = molecular target: HDAC3 (Homo sapiens (Human), UniProt O15379); experiment: HDAC enzyme assay (HDAC3); type: biochemical
[4] = molecular target: HDAC1 (Homo sapiens (Human), UniProt Q13547); experiment: HDAC enzyme assay (HDAC1); type: biochemical
[5] = molecular target: HDAC2 (Homo sapiens (Human), UniProt Q92769); experiment: HDAC enzyme assay (HDAC2); settings: read-out: HDAC2 IC50
[6] = Blood brain barrier penetration; settings: in vivo
[7] = system: Dorsal root ganglion neurons (DRGNs); experiment: Acetyl-tubulin fluorescent ICC of axonal microtubules; type: cell-based, rat
Protocol: DRGNs were treated with Compound 2 on coverslips, fixed and stained with antibodies against acetyl-tubulin and total tubulin (fluorescent ICC) to visualize and quantitate tubulin acetylation in axonal microtubules. […] Acetyl-tubulin signal was normalized to total tubulin signal.

[8] = system: Dorsal root ganglion neurons (DRGNs); experiment: Tubulin and histone acetylation by western blot of whole cell extracts; type: cell-based, rat; settings: 24 hours treatment
[9] = system: primary rat dorsal root ganglion (DRG) neurons; experiment: Mitochondrial axonal transport live imaging under high glucose; type: cell-based; settings: 200 mM glucose and 500 nM compound, 24 h
Protocol: To investigate the effects of hyperglycemia on axonal transport live imaging was used to measure mitochondrial transport in primary rat dorsal root ganglion cells. Primary rat dorsal root ganglion (DRG) neurons (Lonza) were cultured for 5-7 days according to the vendor's protocol. The day before the imaging session cells were infected using CellLight Mitochondria-GFP (BacMam 2.0-based reagent, ThermoFisher Scientific) to fluorescently label mitochondria. […] Media in control wells was replaced with fresh media containing 25 mM glucose (control). Cells were allowed to incubate under these conditions for 24 h. […] Imaging was performed using Zeiss 3i system (Intelligent Imaging Innovations) in temperate controlled environment (37 C). Mitochondria were visualized using FITC filter. Time lapse images were acquired every 2 seconds over the course of 2 min and analyzed using Fiji (ImageJ). MtrackJ plugin was used to manually track mitochondrial movements and calculate parameters such as total distance traveled by each mitochondria. Total distance traveled by a population of mitochondria in each condition was plotted as a cumulative frequency plot. Data presented is a pool of 5 independent experiments.

[10] = system: Rats; experiment: Tail Flick test; type: in vivo, rat; settings: BID for 4 days or single dose 1 h before test
Protocol: A Tail Flick test was performed every hour in a time period of four hours after treatments.
Data are presented in FIG. 4 as the latency time in seconds until the animals flicked their tails in response to the heat source. Morphine and Gabapentin were used as positive controls.

[11] = system: streptozotocin hyperglycemic rats, dorsal root ganglia and sciatic nerves; experiment: Metabolomic study in diabetic neuropathic pain model; type: in vivo, rat; settings: 10 mg/kg twice per day, 11 days
Protocol: Hyperglycemia was induced in rats with an injection of streptozotocin (60 mg/kg). Ten days later neuropathic pain was confirmed using a von Frey filament test for tactile allodynia. In this test, filaments of increasing diameter were applied to the plantar surface of the rear paw and the force necessary to precipitate a paw withdrawal is determined by the smallest filament needed to invoke a response. […] In addition, three naïve rats and three rats that had tactile allodynia at day 10 were sacrificed and the dorsal root ganglia and sciatic nerves were dissected and frozen as control samples.
Dorsal root ganglia and sciatic nerves were sent to Human Metabolome Technologies for analysis of metabolic intermediates. Extracts from these samples were analyzed by capillary electrophoresis/mass spectrometry to measure the level of charged metabolites. In addition, sciatic nerve extracts were analyzed by liquid chromatography/mass spectrometry to measure the level of non-charged metabolites.

HDAC3, sequence (O15379 whole entry): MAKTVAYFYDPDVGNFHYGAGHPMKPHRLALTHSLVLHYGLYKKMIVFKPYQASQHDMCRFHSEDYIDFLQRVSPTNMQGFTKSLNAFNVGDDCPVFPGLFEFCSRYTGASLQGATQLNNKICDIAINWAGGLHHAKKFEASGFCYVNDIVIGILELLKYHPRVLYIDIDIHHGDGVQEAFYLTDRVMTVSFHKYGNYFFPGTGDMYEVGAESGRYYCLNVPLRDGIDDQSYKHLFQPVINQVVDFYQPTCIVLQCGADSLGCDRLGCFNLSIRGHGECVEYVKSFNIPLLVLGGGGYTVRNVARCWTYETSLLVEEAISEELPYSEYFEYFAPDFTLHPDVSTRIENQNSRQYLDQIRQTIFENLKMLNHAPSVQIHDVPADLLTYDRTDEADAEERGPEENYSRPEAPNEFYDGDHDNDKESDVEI
HDAC3, sequence (Q9Y618 395-489 partner): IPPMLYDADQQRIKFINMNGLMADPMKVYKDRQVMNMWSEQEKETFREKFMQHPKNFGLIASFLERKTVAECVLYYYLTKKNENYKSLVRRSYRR
HDAC2, sequence (Q92769 whole entry): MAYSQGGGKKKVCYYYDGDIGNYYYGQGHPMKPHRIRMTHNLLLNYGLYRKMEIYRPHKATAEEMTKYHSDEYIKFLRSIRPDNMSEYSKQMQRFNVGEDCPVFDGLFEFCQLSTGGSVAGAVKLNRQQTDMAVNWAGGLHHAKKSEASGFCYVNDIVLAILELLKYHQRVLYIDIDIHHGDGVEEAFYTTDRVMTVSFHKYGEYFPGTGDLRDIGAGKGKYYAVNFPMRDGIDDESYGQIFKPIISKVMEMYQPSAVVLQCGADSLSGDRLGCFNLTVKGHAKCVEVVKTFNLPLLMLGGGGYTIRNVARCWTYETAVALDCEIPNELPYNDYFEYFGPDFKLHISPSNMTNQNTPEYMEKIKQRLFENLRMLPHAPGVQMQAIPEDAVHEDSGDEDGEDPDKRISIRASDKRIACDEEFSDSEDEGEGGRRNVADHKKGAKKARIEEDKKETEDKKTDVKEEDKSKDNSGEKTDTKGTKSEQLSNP
HDAC6, sequence (Q9UBN7 whole entry): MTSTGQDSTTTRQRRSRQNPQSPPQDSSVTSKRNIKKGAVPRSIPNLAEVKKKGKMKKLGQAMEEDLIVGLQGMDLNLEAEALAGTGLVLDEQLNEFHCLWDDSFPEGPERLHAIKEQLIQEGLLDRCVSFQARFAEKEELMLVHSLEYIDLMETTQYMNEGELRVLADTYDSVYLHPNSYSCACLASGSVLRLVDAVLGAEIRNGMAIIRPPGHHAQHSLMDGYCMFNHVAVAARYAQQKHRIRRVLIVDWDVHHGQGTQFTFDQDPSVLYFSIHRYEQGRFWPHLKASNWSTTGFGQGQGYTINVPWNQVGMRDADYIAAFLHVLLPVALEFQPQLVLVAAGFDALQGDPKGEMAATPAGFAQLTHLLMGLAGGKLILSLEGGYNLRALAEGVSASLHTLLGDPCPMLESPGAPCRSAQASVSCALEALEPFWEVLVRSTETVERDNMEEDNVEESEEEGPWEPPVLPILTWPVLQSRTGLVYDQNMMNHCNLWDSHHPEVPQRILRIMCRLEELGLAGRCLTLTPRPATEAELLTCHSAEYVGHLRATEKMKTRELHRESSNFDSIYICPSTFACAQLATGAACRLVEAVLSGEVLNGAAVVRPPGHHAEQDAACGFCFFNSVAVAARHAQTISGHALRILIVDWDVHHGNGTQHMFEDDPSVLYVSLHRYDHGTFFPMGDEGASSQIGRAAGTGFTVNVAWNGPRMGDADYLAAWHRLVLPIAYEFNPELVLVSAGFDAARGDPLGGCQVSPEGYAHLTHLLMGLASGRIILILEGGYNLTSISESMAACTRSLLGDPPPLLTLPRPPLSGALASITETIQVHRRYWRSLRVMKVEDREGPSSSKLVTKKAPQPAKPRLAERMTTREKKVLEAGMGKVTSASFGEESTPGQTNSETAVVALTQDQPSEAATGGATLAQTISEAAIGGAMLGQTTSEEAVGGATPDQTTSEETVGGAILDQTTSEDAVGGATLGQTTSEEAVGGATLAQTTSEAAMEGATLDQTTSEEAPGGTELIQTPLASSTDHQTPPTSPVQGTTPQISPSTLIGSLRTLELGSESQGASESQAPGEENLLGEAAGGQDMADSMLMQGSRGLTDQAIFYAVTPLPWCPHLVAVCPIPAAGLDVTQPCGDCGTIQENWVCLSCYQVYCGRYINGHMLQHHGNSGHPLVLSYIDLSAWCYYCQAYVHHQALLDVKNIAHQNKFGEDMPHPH
HDAC1, sequence (Q13547 whole entry): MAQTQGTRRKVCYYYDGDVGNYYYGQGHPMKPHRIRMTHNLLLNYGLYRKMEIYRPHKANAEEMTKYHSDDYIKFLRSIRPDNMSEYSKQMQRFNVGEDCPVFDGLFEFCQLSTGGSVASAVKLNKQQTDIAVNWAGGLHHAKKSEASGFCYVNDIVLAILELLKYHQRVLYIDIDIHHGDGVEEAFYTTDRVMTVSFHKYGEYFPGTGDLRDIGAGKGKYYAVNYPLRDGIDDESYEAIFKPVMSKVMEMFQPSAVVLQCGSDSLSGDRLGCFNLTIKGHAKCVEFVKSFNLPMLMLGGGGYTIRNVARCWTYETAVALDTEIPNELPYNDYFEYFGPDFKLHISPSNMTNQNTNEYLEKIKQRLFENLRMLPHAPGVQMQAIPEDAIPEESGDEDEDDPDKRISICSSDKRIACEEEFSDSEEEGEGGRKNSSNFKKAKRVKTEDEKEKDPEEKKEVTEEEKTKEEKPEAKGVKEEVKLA

SMILES	IC50 [1]	tactile allodynia / pain threshold (von Frey) [2]	IC50 [3]	IC50 [4]	IC50 [5]	blood brain barrier penetration [6]	acetylation of axonal microtubules (acetyl-tubulin normalized to total tubulin) [7]	histone acetylation (western blot) ([8]; at up to 1 uM)	tubulin acetylation (western blot) ([8]; whole cell extracts)	mitochondrial movement (total distance traveled) [9]	increase of latency time in Tail Flick test vs vehicle control [10]	persistence of effect on pain threshold after drug withdrawal ([2]; day 24, three days after dosing was stopped)	metabolic changes incl. acyl-carnitines (AC 16:2, AC 18:2) [11]
COc1ccc(C(F)(F)F)cc1CNc1ncc(C(=O)NO)cn1 [Compound 3, N-hydroxy-2-((2-methoxy-5-(trifluoromethyl)benzyl)amino)pyrimidine-5-carboxamide]	2 nM	reversed tactile allodynia in STZ rats in a dose dependent manner and restored the pain threshold in these rats to almost normal levels	105 nM	68 nM	82 nM	–	–	–	–	–	–	–	–
O=C(CCCCCCNC(=O)c1cnc(N(c2ccccc2)c2ccccc2)nc1)NO [Compound 2, 2-(diphenylamino)-N-(7-(hydroxyamino)-7-oxoheptyl)pyrimidine-5-carboxamide]	–	reversed tactile allodynia in STZ rats in a dose dependent manner and restored the pain threshold in these rats to almost normal levels	–	–	–	does not penetrate the blood brain barrier very well	increases acetylation of axonal microtubules	Minimal histone acetylation increase	induced an increase in tubulin acetylation in a dose-dependent matter	restores normal pattern of mitochondrial movement	not effective (except in the group that received Compound 2 at 30 mg/kg BID for 4 days)	–	–
O=C(NO)c1cnc(NC2(c3ccccc3)CC2)nc1 [Compound 1, N-hydroxy-2-((1-phenylcyclopropyl)amino)pyrimidine-5-carboxamide]	–	reversed tactile allodynia in STZ rats in a dose dependent manner and restored the pain threshold in these rats to almost normal levels	–	–	–	penetrates the blood brain barrier	–	–	–	–	not effective	persisted even after the drug was withdrawn	normalized many of the metabolic changes, including the changes in acyl-carnitines

Reference: US10858323B2, “HDAC inhibitors for the treatment of diabetic peripheral neuropathy” (REGENACY PHARMACEUTICALS, LLC, priority 2015, dated 2020)
